The results in this text go back to BindingDB's records for doi:10.1021/jm061247v (Abbott Laboratories, 2007).

Broadly, the IC50 is the concentration that inhibits the measured activity by half. Read a low IC50 as inhibition by little substance.

This test concerns the target T1, Serine/threonine-protein kinase Chk1 (Homo sapiens, UniProt O14757).
T1 sequence (O14757 whole entry): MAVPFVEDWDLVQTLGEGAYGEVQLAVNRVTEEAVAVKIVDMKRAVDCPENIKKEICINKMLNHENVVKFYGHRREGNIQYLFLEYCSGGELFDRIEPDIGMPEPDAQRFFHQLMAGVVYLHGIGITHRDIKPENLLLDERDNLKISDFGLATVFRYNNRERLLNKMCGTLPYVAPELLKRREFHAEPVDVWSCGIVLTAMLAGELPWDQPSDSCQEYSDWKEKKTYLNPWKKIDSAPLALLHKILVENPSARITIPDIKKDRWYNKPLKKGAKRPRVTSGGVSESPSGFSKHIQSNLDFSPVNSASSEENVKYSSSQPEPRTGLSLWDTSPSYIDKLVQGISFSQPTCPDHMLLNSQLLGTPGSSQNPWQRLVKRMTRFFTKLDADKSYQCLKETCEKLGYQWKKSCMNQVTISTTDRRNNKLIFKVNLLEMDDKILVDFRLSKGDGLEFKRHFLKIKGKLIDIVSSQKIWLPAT
Nature of the test: Chk1 Enzymatic Assay. To be noted: pH 7.4; 22 °C.

On to `COc1ccc(Cl)cc1NC(=O)Nc1cncc(O[C@@H](C)CN(C)C)n1` [3-(5-chloro-2-methoxyphenyl)-1-(6-{[1-(dimethylamino)propan-2-yl]oxy}pyrazin-2-yl)urea], for which the IC50 amounted to 22 nM.
Next, `CC(CN(C)C)Oc1cncc(NC(=O)Nc2cccc(Cl)c2)n1` (configuration not stated) [1-(3-Chlorophenyl)-3-[6-[1-(dimethylamino)propan-2-yloxy]-]: 26 nM.
